{
  "source": "patent US8708045B2",
  "about": "“Multifunctional boronic acid crosslinking agents and associated methods” (Halliburton Energy Services, Inc., priority 2010, dated 2014)",
  "test": "Visual solubility of 4-vinylphenyl boronic acid with sorbitol as solubilizing agent",
  "format": "physicochemical",
  "description": "In this example, sorbitol was used as an illustrative solubilizing agent to improve the solubility of 4-vinylphenyl boronic acid. A stock solution of 20 g of sorbitol in 200 mL of deionized water was prepared to give a sorbitol concentration of 0.55 M. In several plastic sealable containers was placed 11-15 mg of the boronic acid (maximum of 0.1 mmol in each container), and a variety of solutions were added to the containers, sometimes with pH adjustment. Thereafter, the containers were vortex mixed for 5 minutes, and solubility was analyzed visually.",
  "data": [
    {"smiles": "C=Cc1ccc(B(O)O)cc1", "note": "[4-vinylphenyl boronic acid]", "values": [
      {"measurement": "Soluble?", "setting": "Sample # 1: 10 mL deionized H2O, 11-15 mg boronic acid, vortex 5 minutes, visual", "result": "no"},
      {"measurement": "Soluble?", "setting": "Sample # 2: 10 mL stock sorbitol (0.55 M)", "result": "yes"},
      {"measurement": "Soluble?", "setting": "Sample # 3: 10 mL stock sorbitol, pH = 14", "result": "yes"},
      {"measurement": "Soluble?", "setting": "Sample # 4: 200 μL stock sorbitol, 5 mL deionized H2O", "result": "no"},
      {"measurement": "Soluble?", "setting": "Sample # 5: 5 mL deionized H2O, pH = 12.3", "result": "yes"},
      {"measurement": "Soluble?", "setting": "Sample # 6: 1 mL stock sorbitol, 5 mL deionized H2O", "result": "no"},
      {"measurement": "Soluble?", "setting": "Sample # 7: 2 mL stock sorbitol, 6 mL deionized H2O", "result": "no"},
      {"measurement": "Soluble?", "setting": "Sample # 8: 200 μL stock sorbitol, 5 mL deionized H2O, pH = 10.6", "result": "no"},
      {"measurement": "Soluble?", "setting": "Sample # 9: 2 mL stock sorbitol, 6 mL deionized H2O, pH = 11.0", "result": "yes"},
      {"measurement": "Soluble?", "setting": "Sample # 10: 2 mL stock sorbitol, 10 mL deionized H2O, pH = 10.4", "result": "yes"},
      {"measurement": "Soluble?", "setting": "Sample # 11: 10 mL deionized H2O, pH = 9.8", "result": "no"},
      {"measurement": "Soluble?", "setting": "Sample # 12: 2 mL stock sorbitol, 10 mL deionized H2O, pH = 9.2", "result": "no"},
      {"measurement": "Soluble?", "setting": "Sample # 13: 2 mL stock sorbitol, 10 mL deionized H2O, pH = 9.4", "result": "yes"}
    ]}
  ]
}
